Experimental data reported in patent US20010007016A1, “PEPTIDE DERIVATIVES” (priority 1994, published 2001).

Experiments:
Mice [1] = assay: Analgesic activity by pressure stimulation method, Method A (UGO BASILE analgesy meter Model 7,200, tail pressure in grams); format: in vivo; details: for ED50: Mus musculus, read-out: ED50 (dose that induced 50 percent of % of MPE)
Method: (§1) The analgesic activities of the peptide derivatives of the present invention were evaluated by the pressure stimulation method using one of two devices. In method A, analgesy meter Model 7,200 manufactured by UGO BASILE (Comerio, Italy) was used (units of tail pressure expressed in grams). In method B, an apparatus made by inventor Professor S. Sakurada was used (units of tail pressure expressed in mmHg). Mice were subjected to pressure stimulation at the bases of their tails at a given rate(Method A: 32 g/s; Method B: 10 mmHg/second). […] For the experiments, mice that normally responded to a given pressure of 100-200 g (Method A) or 40-50 mmHg (Method B) were used. The maximum stimulating pressure was 500 g (Method A) or 100 mmHg (Method B). Analgesic activity was calculated as percent of maximum possible effect (% of MPE) according to the equation: [formula]
(§2) Wherein Po is the pain reaction threshold before the administration of a drug; Pt is the pain reaction threshold “t” minutes after the administration of the drug; and Pc is the maximum stimulating pressure. ED5 0 values were calculated based on dose response curves as doses that induced 50 percent of % of MPE and analgesic activities of the drugs were compared. The results obtained from subcutaneous administration (s.c.; skin on the backs of the mice was used) and oral administration (p.o.) are shown in Table 3.

Mice [2] = assay: Analgesic activity by pressure stimulation method, Method B (apparatus made by Professor S. Sakurada, tail pressure in mmHg); format: in vivo; details: for ED50: Mus musculus, read-out: ED50 (dose that induced 50 percent of % of MPE)
Method: as §1, §2

Row | Molecule | ED50 (dose that induced 50 percent of % of MPE) (Mice [1]; p.o.) [mg/kg] | ED50 (dose that induced 50 percent of % of MPE) (Mice [1]; s.c.) [mg/kg] | ED50 (dose that induced 50 percent of % of MPE) (Mice [2]; s.c.) [mg/kg] | further results
1 | CN1CC[C@]23c4c5ccc(O)c4O[C@H]2[C@@H](O)C=C[C@H]3[C@H]1C5 [morphine, reference compound] | – | – | – | ED50 (Mice [1]; po): 22.2 mg/kg; ED50 (Mice [1]; sc): 3.3 mg/kg; ED50 (Mice [2]; po): 29.6 mg/kg; ED50 (Mice [2]; sc): 4.6 mg/kg
2 | H2NC(NH)-Tyr-D-Arg-Phe-N(CH3)CH2CH2COOH | 5.8 | 0.09 | – | –
3 | H2NC(NH)-Tyr-D-Arg-Phe-N(CH3)CH2COHN2 | – | – | 0.27 | –
4 | H2NC(NH)-Tyr-D-Arg-Phe-N(CH3)CH2COOH | – | – | 0.13 | ED50 (dose that induced 50 percent of % of MPE) (Mice [2]; p.o.): 4.9 mg/kg
5 | H2NC(NH)-Tyr-D-Arg-Phe-N(Me)2 | – | – | 1.22 | –
6 | H2NC(NH)-Tyr-D-Arg-Phe-NHCH2CH2COOH | 18.5 | 0.32 | – | –
